The text below walks through data of patent US20190010158A1, “ANTITUMOR EFFECT POTENTIATOR COMPRISING PYRROLOPYRIMIDINE COMPOUND” (TAIHO PHARMACEUTICAL CO., LTD, priority 2015, published 2019).

Where “and” joins values, the source holds several entries; their conditions need not be identical. Equal values may be shown once. Read-outs that look alike come from different tables or passages of the source.

Broadly, the IC50 is the concentration at which inhibition is half-maximal.

The test system of experiment [1] is human acute T lymphoblastic leukemia CCRF-CEM cell lines. Kind of experiment: Cell growth inhibition 1 (CellTiter-Glo). The experiment is classed as cell-based. As to conditions: culture with test compound 72 hours.
For experiment [2], the system named is tumor cell lines shown in Table 24. The experiment is described as follows: Example 2: combined use with tyrosine kinase inhibitor, cell growth inhibition test (IC50 ratio, CI). The experiment is classed as cell-based. The conditions noted are these: for Comprehensive Evaluation: combined use with Reference Example Compound 55.
[3] abbreviates: SNU-16, Reference Example Compound 55:other compound 1:3.3, at ED50.
[4] abbreviates: SNU-16, Reference Example Compound 55:other compound 1:10, at ED50.

With `Nc1ncnc2c1c(C#Cc1c(F)cccc1Cl)cn2[C@@H]1O[C@H](CNS(N)(=O)=O)[C@@H](O)[C@H]1O` [Reference Example 73, 4-Amino-5-[2-(2-chloro-6-fluoro-phenyl)ethynyl]-7-[(2R,3R,4S,5R)-3,4-dihydroxy-5-[(sulfamoylamino)methyl]tetrahydrofuran-2-yl]pyrrolo[2,3-d]pyrimidine], half-maximal inhibition in experiment [1] (IC50) required 71 nM.

As for `CCc1cc2c(cc1N1CCC(N3CCOCC3)CC1)C(C)(C)c1[nH]c3cc(C#N)ccc3c1C2=O` [Alectinib, alectinib], the CI in experiment [2] (MM.1S, Reference Example Compound 55:other compound 1:3000, at ED50) came out at 0.58; in experiment [2] (MM.1S, Reference Example Compound 55:other compound 1:9000, at ED50), 0.59. The “Comprehensive Evaluation” value in experiment [2] (MM.1S) is “Synergism (0.3-0.7)”.

For `COc1cc2nccc(Oc3ccc(NC(=O)NC4CC4)c(Cl)c3)c2cc1C(N)=O` [Lenvatinib, lenvatinib], the figures for the CI in experiment [2] (setting [3]) and in experiment [2] (setting [4]) were 0.44 and 0.63, respectively. Further, in experiment [2] (SNU-16), the “Comprehensive Evaluation” value is “Synergism (0.3-0.7)”.

`Cc1ccc(NC(=O)c2ccc(CN3CCN(C)CC3)cc2)cc1Nc1nccc(-c2cccnc2)n1` [Imatinib, imatinib]: the CI in experiment [2] is 0.31 and 0.35. For the same molecule, in experiment [2] (A549), the “Comprehensive Evaluation” value was “Synergism (0.3-0.7)”.

In the case of `Nc1ncnc2c1c(C#Cc1c(F)cc(NCCO)cc1F)cn2[C@@H]1O[C@H](CNS(N)(=O)=O)[C@@H](O)[C@H]1O` [Reference Example 32, 4-Amino-5-[2-[2,6-difluoro-4-(2-hydroxyethylamino)phenyl]ethynyl]-7-[(2R,3R,4S,5R)-3,4-dihydroxy-5-[(sulfamoylamino)methyl]tetrahydrofuran-2-yl]pyrrolo[2,3-d]pyrimidine], the IC50 in experiment [1] turned out to be 2500 nM.

Regarding `C=CC(=O)Nc1cc(Nc2nccc(-c3cn(C)c4ccccc34)n2)c(OC)cc1N(C)CCN(C)C` [Osimertinib, osimertinib], the CI in experiment [2] (NCI-H1975, Reference Example Compound 55:other compound 1:0.01, at ED50) is given as 0.96; in experiment [2] (NCI-H1975, Reference Example Compound 55:other compound 1:0.03, at ED50), 0.99. Also, the “Comprehensive Evaluation” value in experiment [2] (NCI-H1975) is listed as “Additive (0.9-1.10)”.

Consider `Cc1nc(Nc2ncc(C(=O)Nc3c(C)cccc3Cl)s2)cc(N2CCN(CCO)CC2)n1` [Dasatinib, dasatinib], for which the CI in experiment [2] (HCT116, Reference Example Compound 55:other compound 1:300, at ED50) worked out at 0.83; in experiment [2] (HCT116, Reference Example Compound 55:other compound 1:900, at ED50), 0.96. Moreover, the “Comprehensive Evaluation” value in experiment [2] (HCT116) is “Additive (0.9-1.10)”.

`CCCOc1cccc(F)c1C#Cc1cn([C@@H]2O[C@H](CNS(N)(=O)=O)[C@@H](O)[C@H]2O)c2ncnc(N)c12` [Reference Example 60, 4-Amino-7-[(2R,3R,4S,5R)-3,4-dihydroxy-5-[(sulfamoylamino)methyl]tetrahydrofuran-2-yl]-5-[2-(2-fluoro-6-propoxy-phenyl)ethynyl]pyrrolo[2,3-d]pyrimidine] displayed an IC50 in experiment [1] of 5.1 nM.

Turning to `Nc1ncnc2c1c(C#Cc1cccc3c1S(=O)(=O)CCC3)cn2[C@@H]1C[C@H](CNS(N)(=O)=O)[C@@H](O)[C@H]1O` [Reference Example 123, 4-Amino-7-[(1R,2S,3R,4R)-2,3-dihydroxy-4-[(sulfamoylamino)methyl]cyclopentyl]-5-[2-(1,1-dioxo-3,4-dihydro-2H-thiochromen-8-yl)ethynyl]pyrrolo[2,3-d]pyrimidine], half-maximal inhibition in experiment [1] (IC50) required 97 nM.

The molecule `Nc1ncnc2c1c(C#Cc1c(F)cccc1OCC1CC1)cn2[C@@H]1O[C@H](CNS(N)(=O)=O)[C@@H](O)[C@H]1O` [Reference Example 86, 4-Amino-5-[2-[2-(cyclopropylmethoxy)-6-fluoro-phenyl]ethynyl]-7-[(2R,3R,4S,5R)-3,4-dihydroxy-5-[(sulfamoylamino)methyl]tetrahydrofuran-2-yl]pyrrolo[2,3-d]pyrimidine] registered a concentration for half-maximal inhibition (IC50) in experiment [1] of 5.5 nM.

In experiment [1], `CSc1cccc(F)c1C#Cc1cn([C@@H]2C[C@H](CNS(N)(=O)=O)[C@@H](O)[C@H]2O)c2ncnc(N)c12` [Reference Example 98, 4-Amino-7-[(1R,2S,3R,4R)-2,3-dihydroxy-4-[(sulfamoylamino)methyl]cyclopentyl]-5-[2-(2-fluoro-6-methylsulfanyl-phenyl)ethynyl]pyrrolo[2,3-d]pyrimidine] returned an IC50 of 7.3 nM.

On to `Cc1ccc(NC(=O)c2ccc(CN3CCN(C)CC3)cc2)cc1Nc1nc(-c2cccnc2)cs1` [Masitinib, masitinib], for which the CI in experiment [2] (MOLT-4, Reference Example Compound 55:other compound 1:33, at ED50) came to 0.31; in experiment [2] (MOLT-4, Reference Example Compound 55:other compound 1:100, at ED50), 0.20. In experiment [2] (MOLT-4), the “Comprehensive Evaluation” value is “Synergism (0.3-0.7)”.

`CCS(=O)(=O)c1cc(N2CCCC2)cc(F)c1C#Cc1cn([C@@H]2O[C@H](CNS(N)(=O)=O)[C@@H](O)[C@H]2O)c2ncnc(N)c12` [Reference Example 70, 4-Amino-7-[(2R,3R,4S,5R)-3,4-dihydroxy-5-[(sulfamoylamino)methyl]tetrahydrofuran-2-yl]-5-[2-(2-ethylsulfonyl-6-fluoro-4-pyrrolidin-1-yl-phenyl)ethynyl]pyrrolo[2,3-d]pyrimidine]: the 50% inhibitory concentration (IC50) in experiment [1] came to 15 nM.

As for `Cc1ccc(C(=O)Nc2ccc(CN3CCN(C)CC3)c(C(F)(F)F)c2)cc1C#Cc1cnc2cccnn12` [Ponatinib, ponatinib], in experiment [2], the CI was 0.46 and 0.36.

Turning to `CS(=O)(=O)CCNCc1ccc(-c2ccc3ncnc(Nc4ccc(OCc5cccc(F)c5)c(Cl)c4)c3c2)o1` [Lapatinib, lapatinib], the CI worked out at 0.15 in experiment [2] (A431, Reference Example Compound 55:other compound 1:10, at ED50) and 0.19 in experiment [2] (A431, Reference Example Compound 55:other compound 1:30, at ED50). For the same molecule, in experiment [2] (A431), the “Comprehensive Evaluation” value was “Strong”.

As to `Cc1cc(Nc2ncnc3ccc(NC4=NC(C)(C)CO4)cc23)ccc1Oc1ccn2ncnc2c1` [ARRY380], the CI in experiment [2] (A431, Reference Example Compound 55:other compound 1:36 (only ratio calculated), at ED50) was 0.34. Also, in experiment [2] (A431), the “Comprehensive Evaluation” value is reported as “Synergism (0.3-0.7)”.

As for `C[C@@H](Oc1cc(-c2cnn(C3CCNCC3)c2)cnc1N)c1c(Cl)ccc(F)c1Cl` [Crizotinib, crizotinib], the CI in experiment [2] (MM.1S, Reference Example Compound 55:other compound 1:37, at ED50) came out at 0.87; in experiment [2] (MM.1S, Reference Example Compound 55:other compound 1:111, at ED50) it was 0.74. The “Comprehensive Evaluation” value in experiment [2] (MM.1S) is “Slight”.

Turning to `Cc1ccc(Nc2nccc(N(C)c3ccc4c(C)n(C)nc4c3)n2)cc1S(N)(=O)=O` [Pazopanib, pazopanib], the CI turned out to be 0.71 in experiment [2] (SNU-16, Reference Example Compound 55:other compound 1:30, at ED50) and 0.52 in experiment [2] (SNU-16, Reference Example Compound 55:other compound 1:90, at ED50).

As for `Nc1ncnc2c1c(C#CCc1ccccc1F)cn2[C@@H]1O[C@H](CNS(N)(=O)=O)[C@@H](O)[C@H]1O` [Reference Example 36, 4-Amino-7-[(2R,3R,4S,5R)-3,4-dihydroxy-5-[(sulfamoylamino)methyl]tetrahydrofuran-2-yl]-5-[3-(2-fluorophenyl)prop-1-ynyl]pyrrolo[2,3-d]pyrimidine], it took 250 nM to reach half-maximal inhibition in experiment [1] (IC50).

Regarding `N#CC[C@H](C1CCCC1)n1cc(-c2ncnc3[nH]ccc23)cn1` [Ruxolitinib, ruxolitinib], the CI in experiment [2] is on record as 0.82.

Take `CNC(=O)c1cc(Oc2ccc(NC(=O)Nc3ccc(Cl)c(C(F)(F)F)c3)c(F)c2)ccn1` [Regorafenib, regorafenib]: the CI in experiment [2] (SNU-16, Reference Example Compound 55:other compound 1:15, at ED50) worked out at 0.88; in experiment [2] (SNU-16, Reference Example Compound 55:other compound 1:45, at ED50), 1.06. The “Comprehensive Evaluation” value in experiment [2] (SNU-16) is “Additive (0.9-1.10)”.

As to `CN(C)C/C=C/C(=O)Nc1cc2c(Nc3ccc(F)c(Cl)c3)ncnc2cc1O[C@H]1CCOC1` [Afatinib, afatinib], the CI amounted to 0.70 in experiment [2] (A549, Reference Example Compound 55:other compound 1:1.7, at ED50) and 0.48 in experiment [2] (A549, Reference Example Compound 55:other compound 1:5, at ED50). In addition, the “Comprehensive Evaluation” value in experiment [2] (A549) is listed as “Synergism (0.3-0.7)”.

For `C#Cc1cccc(Nc2ncnc3cc(OCCOC)c(OCCOC)cc23)c1` [Erlotinib, erlotinib], the CI in experiment [2] is given as 0.45; in experiment [2] (A549, Reference Example Compound 55:other compound 1:10, at ED50) it was 0.54. Moreover, in experiment [2] (A549), the “Comprehensive Evaluation” value was “Synergism (0.3-0.7)”.

Consider `COc1cc2ncnc(Nc3ccc(F)c(Cl)c3)c2cc1OCCCN1CCOCC1` [Gefitinib, gefitinib], for which the CI was determined as 0.33 in experiment [2] (A431, Reference Example Compound 55:other compound 1:5, at ED50) and 0.32 in experiment [2] (A431, Reference Example Compound 55:other compound 1:15, at ED50). In addition, the “Comprehensive Evaluation” value in experiment [2] (A431) was “Synergism (0.3-0.7)”.

With `CC1(COc2ccc3c(c2)ncn3-c2ccc3cccc(N4CCC(N)CC4)c3n2)COC1` [Crenolanib, crenolanib], the CI in experiment [2] (MV4-11, Reference Example Compound 55:other compound 1:3.7, at ED50) was found to be 0.91; in experiment [2] (MV4-11, Reference Example Compound 55:other compound 1:11, at ED50), 0.83. Further, the “Comprehensive Evaluation” value in experiment [2] (MV4-11) is “Additive (0.9-1.10)”.

`CC(C)(C)c1cc(NC(=O)Nc2ccc(-c3cn4c(n3)sc3cc(OCCN5CCOCC5)ccc34)cc2)no1` [Quizartinib, quizartinib]: the CI was 0.39 in experiment [2] (MOLT-4, Reference Example Compound 55:other compound 1:111, at ED50) and 0.44 in experiment [2] (MOLT-4, Reference Example Compound 55:other compound 1:333, at ED50). Further, in experiment [2] (MOLT-4), the “Comprehensive Evaluation” value was “Synergism (0.3-0.7)”.

For the molecule `CCN(CC)CCNC(=O)c1c(C)[nH]c(/C=C2\C(=O)Nc3ccc(F)cc32)c1C` [Sunitinib, sunitinib], the CI in experiment [2] (setting [3]) came to 0.86; in experiment [2] (setting [4]), 0.91. Besides, the “Comprehensive Evaluation” value in experiment [2] (SNU-16) was “Additive (0.9-1.10)”.
